Test results published in publication PMC9767854, “Discovery and mechanism studies of a novel ATG4B inhibitor Ebselen by drug repurposing and its anti-colorectal cancer effects in mice” (Cell & Bioscience, 2022).

What was measured:
ATG4B = target: T1, ATG4B (Homo sapiens, UniProt Q9Y4P1); assay: Gel-based assay (SDS-PAGE and CBB staining of FRET-GATE-16 cleavage); format: biochemical; settings: 1 μM
T1 construct: 6xHis; made in house; host or cells: E. coli BL21(DE3)
T1 sequence (Q9Y4P1 1-393): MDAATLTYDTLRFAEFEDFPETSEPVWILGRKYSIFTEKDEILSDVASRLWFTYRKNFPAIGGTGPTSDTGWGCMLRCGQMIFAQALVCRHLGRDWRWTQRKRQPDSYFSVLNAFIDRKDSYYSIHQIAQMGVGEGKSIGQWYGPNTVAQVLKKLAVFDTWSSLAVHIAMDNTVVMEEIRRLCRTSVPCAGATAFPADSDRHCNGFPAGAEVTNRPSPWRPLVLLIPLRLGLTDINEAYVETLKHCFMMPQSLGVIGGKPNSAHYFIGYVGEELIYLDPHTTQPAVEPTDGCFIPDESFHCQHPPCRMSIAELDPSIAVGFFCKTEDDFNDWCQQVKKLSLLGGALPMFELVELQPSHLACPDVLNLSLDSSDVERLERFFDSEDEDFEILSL
Procedure: Taking ATG4B as the target, we used the high-throughput FRET-based assay to screen the FDA-approved drugs library containing 1600 compounds (Fig. 1A). […] (Additional file 1: Figure S1C). Then twenty-four candidate compounds (marked in red) were noted through an initial screening at 10 μM (Fig. 1B). To further validate their inhibitory effect, a more rigorous and authentic approach as gel-based assay was carried out (Fig. 1C). The brake of the cleavage reaction of the substrate FRET-GATE-16 was very intuitively reflective of the compounds’ inhibitory effect on the ATG4B enzymatic activity. […] This was also verified in the FRET- and gel-based full concentration-response plot of compound 669 (Fig. 1D, E).
Fig. 1 Screening of ATG4B inhibitors based on the approved drugs library by FRET assay. A Illustration of the FRET-based high-throughput screening platform for ATG4B inhibitors. B Scatter plot of inhibition rate of approved library for ATG4B based on FRET assay. Candidate compounds were marked in red. […] C The inhibitory effect of twenty-four candidate compounds (10 μM) were detected by SDS-PAGE and Coomassie brilliant blue (CBB) staining according to the cleavage of substrates. […] D The dose-dependent inhibition of compound 669 (Ebselen) were determined by SDS-PAGE.

[1] = target: T2, ATG4B (cell lysates from ATG4B-Flag 293 T) (Homo sapiens, UniProt Q9Y4P1); assay: In vitro cleavage assay of LC3B-GST with ATG4B-overexpressing cell lysates; format: biochemical; settings: compounds 10 μM, 30 min at 37 °C
T2 construct: expressed in transfected cells; host or cells: 293T (ATG4B-Flag 293 T line)
Procedure: A, B Cell lysates (1.5 μg) from ATG4B-Flag 293 T were incubated with different compounds (10 μM) for 30 min at 37 °C, then recombinant LC3B-GST (3 μg) were added up to 20 μl and inhibitions were detected by SDS-PAGE and CBB staining (A). B Statistical chart of gel results of three repeated experiments. Ebselen was abbreviated as Ebs, the same below. CON as control without lysate, NC as negative control without compound.

[2] = target: T3, Recombinant protein ATG4A (Homo sapiens, UniProt Q8WYN0); assay: FRET-based assay for ATG4A activity; format: biochemical; settings: FRET-based enzymatic cleavage
T3 construct: 6xHis; made in house; host or cells: E. coli BL21(DE3)
Procedure: FRET-based assay for ATG4B or ATG4A activity was operated as previously described. Briefly, Recombinant protein ATG4B (0.75 μg/ml) or ATG4A (5 μg/ml) was incubated with compounds in reaction buffer (150 mM NaCl, 20 mM Tris–HCl, pH 8.0, 0.1% CHAPS, 1 mM EDTA) at 37 °C. After 30 min, substrate FRET-GATE-16 (50 μg/ml) was added to a final volume of 50 μl. The reaction was recorded via relative fluorescence intensity ratio of 527 nm/477 nm (RFU). The final inhibition rate of the compound for ATG4 was calculated as: (RFUcompound-RFUNC)/(RFUCON-RFUNC) × 100%; respectively, NC as negative control without inhibitor, CON as control without enzymes. For ATG4 activity determination in cells and tissues, cells or separated tumor samples were homogenized in a native lysis buffer (150 mM NaCl, 20 mM Tris–HCl, pH 7.6, 1% TritonX-100, 1 mM EDTA) without protease inhibitors. Then 5 μg total proteins from each sample was added into FRET assay system after clean supernatant proteins were separated. The reaction was recorded via relative fluorescence intensity ratio of 527 nm/477 nm. Finally, the inhibition rates of ATG4B were calculated with the vehicle or CM group as the negative control (ATG4 activity defined as 100%).

HCT116 cells = assay: Cell counting and colony formation assays; format: cell-based
Procedure: For colony formation, WT HCT116 and ATG4B KO HCT116 cells were seeded in 6-well plates at 800 cells per well and cultured for 9–12 days, respectively. Concurrently, medium containing indicated compounds were replaced every 3 days, before the cells were fixed in 4% paraformaldehyde for 20 min and washed with PBS three times. Then colonies were stained with crystal violet (Beyotime, C0121) for 1 h and excess dyes were washed with PBS. Eventually, colonies more than 1 mm were counted in at least three independent experiments.
WT/ATG4B KO HCT116, WT/ATG4B KO SW620 and WT/ATG4B KO RKO cells were seeded in 96-well plate at 1000–1500 cells per well for cell viability assay, and seed in 6-well plate at 1 × 10^5 cells per well for cell number counting. After 12 h, the indicated drugs were added to the medium and cultured for another 96 h. Total viable cell numbers were counted by a cell counter (BioRAD), and cell viability was determined by cell-count-8 assay kit (CCK-8, Bimake, B34304) according to the manufacturer’s protocol.

[3] = test system: SW620 cell-based xenografts; assay: SW620 subcutaneous xenograft tumor model; format: in vivo, BALB/c-nu/nu mice
Procedure: Fig. 7 Ebselen suppresses colorectal cancer tumor growth. A A brief diagram of the animal experiment for subcutaneous xenografted tumor model. 2 × 10^6 (2e^6) SW620 cells were xenografted into BALB/c-nu/nu mice by subcutaneous injection (s.c.). After 10 days, mice were injected intraperitoneally (i.p.) with indicated doses of Ebselen every two days, and monitoring of tumor volume and body weight changes were performed. B–D Representative tumor images and tumor weight at the end time point were captured from SW620 cell-based xenografts. Mean tumor weight ± SEM (C) and mean tumor volume ± SEM (D) were shown. E The inhibitory effect of ATG4 in xenografted tumors was detected by FRET assay. F, I The protein level of autophagy and apoptosis in xenografted tumors were detected by western blot. Representative results were shown and the statistical results of each group were obtained from seven mice. J, K The immunohistochemistry analysis of Ki67 in xenografted tumors (group vehicle and Ebselen 10 mg/kg). Bar = 20 μm. […]
Four- to six-weeks-old BALB/C nu/nu female mice purchased from the Experimental Animal Center of Sun Yat-Sen University, were approved by the Animal Ethics Committee at Sun Yat-sen University and kept in specific-pathogen-free environment. […] Tumor volume was measured by calipers and calculated using the equation: 0.5 × length × width^2. […]

T3 sequence (Q8WYN0 whole entry): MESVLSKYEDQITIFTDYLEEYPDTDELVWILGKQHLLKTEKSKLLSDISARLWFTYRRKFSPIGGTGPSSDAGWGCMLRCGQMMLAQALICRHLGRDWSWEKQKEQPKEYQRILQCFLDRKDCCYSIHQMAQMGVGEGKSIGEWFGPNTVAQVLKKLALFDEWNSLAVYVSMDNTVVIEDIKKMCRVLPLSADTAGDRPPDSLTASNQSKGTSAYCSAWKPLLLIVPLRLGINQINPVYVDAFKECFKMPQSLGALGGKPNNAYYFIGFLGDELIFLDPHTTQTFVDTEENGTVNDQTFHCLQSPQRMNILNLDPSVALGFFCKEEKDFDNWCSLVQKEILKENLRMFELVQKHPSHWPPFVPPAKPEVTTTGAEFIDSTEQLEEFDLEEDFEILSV

With `O=c1c2ccccc2[se]n1-c1ccccc1` [Ebselen] the “inhibition of ATG4B in gel” value (ATG4B) was “complete inhibition”, the “cleavage activity of ATG4B on LC3B-GST in cell lysates” value [1] was “strongly suppressed” and the “inhibition of ATG4A compared to ATG4B” value [2] was “weaker inhibition”. The “cell proliferation and colony formation” value (HCT116 cells) was “significantly inhibit”, the anti-tumor effect ([3]; 5 mg/kg i.p. every two days) was “obvious anti-tumor effect” and the growth of tumors ([3]; 5, 10, 20 mg/kg i.p. every two days, compared with vehicle) was “significantly suppress the growth of tumors”.
